Results from patent US6140354A, “N-substituted aminotetralins as ligands for the neuropeptide Y Y5 receptor useful in the treatment of obesity and other disorders” (Ortho-McNeil Pharmaceutical, Inc., priority 1999, dated 2000).

Target: T1, human neuropeptide Y5 receptor (Homo sapiens, UniProt Q15761)
T1 construct: expressed in transfected cells
T1 sequence (Q15761 1-445): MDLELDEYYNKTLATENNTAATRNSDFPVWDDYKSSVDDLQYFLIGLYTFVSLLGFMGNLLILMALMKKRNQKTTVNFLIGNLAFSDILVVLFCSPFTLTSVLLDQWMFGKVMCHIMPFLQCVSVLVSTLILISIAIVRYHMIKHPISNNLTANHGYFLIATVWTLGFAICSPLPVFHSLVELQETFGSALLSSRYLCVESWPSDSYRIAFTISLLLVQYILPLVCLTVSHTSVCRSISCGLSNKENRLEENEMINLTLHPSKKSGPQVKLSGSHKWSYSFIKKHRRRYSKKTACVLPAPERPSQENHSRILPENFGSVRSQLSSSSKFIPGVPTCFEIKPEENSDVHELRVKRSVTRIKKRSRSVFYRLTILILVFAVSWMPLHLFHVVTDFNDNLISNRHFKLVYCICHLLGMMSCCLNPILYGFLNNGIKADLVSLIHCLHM
Assay: NPY5 HTS Centrifugation Assay: competition with 125I-PYY for binding to NPY5-transfected HEK293 cell membranes
Conditions: 80 pM 125I-PYY, 1 hr room temperature, read-out: % Inh @ 3 uM (% Inhibition of ^125 I-PYY Binding)
Protocol: The compounds described in this invention were evaluated for binding to the human neuropeptide Y5 receptor.
The human NPY5 receptor cDNA (Genbank Accession number U66275) was inserted into the vector pClneo (Invitrogen) and transfected into human embryonic kidney cells (HEK-293) via Calcium phosphate method (Cullen 1987). Stably transfected cells were selected with G-418 (600 ug/mL). Stably transfected cells served as the source for the membranes for the NPY5 receptor binding assay.
NPY5-transfected HEK293 cells were grown to confluence in 150 cm^2 culture dishes. Cells were washed once with phosphate-buffered saline (Gibco Cat#14040-133). Cells were then incubated in phosphate-buffered saline without Calcium and without Magnesium, supplemented with 2 mM EDTA. Cells were incubated for 10 minutes at room temperature and the cells were collected by repetitive pipeting. Cells were formed into pellets and then frozen at -80 until needed. Frozen pellets were homogenized with a polytron at full speed for 12 seconds in a homogenization buffer (20 mM Tris HCl, 5 mM EDTA, pH 7.4). Homogenates were centrifuged for 5 minutes at 4C at 200 g. Supernatants were transferred to corex tubes and centrifuged for 25 minutes at 28,000 g. Pellets were re-suspended in Binding (20 mM HEPES, 10 mM NaCl, 0.22 mM KH2 PO4, 1.3 mM CaCl2, 0.8 mM MgSO4, pH 7.4). Membranes were kept on ice until use.
A competition binding assay, known to those skilled in the art, was used in which aminotetralins (I) compete with ^125 I-PYY for binding to cell membranes. In simple terms, the less ^125 I-PYY bound to the membranes implies that a compound is a good inhibitor (competitor). Bound ^125 I-PYY is determined by centrifugation of membranes, aspirating supernatant, washing away residual ^125 I-PYY and subsequently counting the bound sample in a g-counter.
Compounds to be tested were prepared as 10× stocks in binding buffer and added first to assay tubes (RIA vials, Sarstedt). Twenty (20) μL of each 10× compound stock is pipeted into vials and 80 μL of ^125 I-PYY (NEN catalog number NEX240), which has been diluted to a concentration of 200 pM in 0.25% BSA in binding buffer, is added to the compound tubes (final concentration of ^125 I-PYY is 80 pM). To each tube is added 100 μL of membranes and the mixture is agitated by pipeting 2 times. Samples are incubated for 1 hr at room temperature. Aluminum cast plates (Sarstedt) containing the vials are then centrifuged 10 minutes at 3200 rpm in a Sorvall RT6000. Supernatant is then aspirated. To each vial 400 μL PBS is added and this is then aspirated again. Vials are then put in carrier polypropylene 12×75 tube and counted in gamma counter (Packard). Non-specific binding is determined in the presence of 300 nM NPY. Percent inhibition of ^125 I-PYY binding is calculated by subtracting non-specific binding from the test samples (compound (I)), taking these counts and dividing by total binding, and multiplying by 100. Inhibitory concentration values (IC50) of compounds that show appreciable inhibition of ^125 I-PYY binding are calculated by obtaining percent inhibition of ^125 I-PYY binding values at different concentrations of the test compound, and using a graphing program such as GraphPad Prism (San Diego, Calif.) to calculate the concentration of test compound that inhibits fifty-percent of ^125 I-PYY binding (Table 4). These operations are known to those skilled in the art.

Structure (SMILES)	inhibition at 3 µM [%]
COc1ccc(CC2c3ccc(OC)cc3CCC2NC[C@H]2CC[C@H](CNS(=O)(=O)c3ccccc3)CC2)cc1 (stereo partly drawn) [Compound 86]	25
O=S(=O)(NCCCCCN[C@H]1CCc2ccccc2[C@H]1Cc1ccccc1)c1ccc2ccccc2c1 (relative stereo) [Compound 46]	89
O=[N+]([O-])c1ccccc1S(=O)(=O)NC[C@H]1CC[C@H](CNC2CCc3cc(F)ccc3C2Cc2ccccc2)CC1 (relative stereo) [Compound 72]	106
COc1ccc2c(c1)CCC(NC[C@H]1CC[C@H](CNS(=O)(=O)c3cccc(F)c3)CC1)C2Cc1ccccc1 (stereo partly drawn) [Compound 60]	94
COc1ccc2c(c1)CCC(NC[C@H]1CC[C@H](CNS(=O)(=O)c3ccc4ccccc4c3)CC1)C2Cc1cccc(Cl)c1 (stereo partly drawn) [Compound 93]	60
COc1ccc2c(c1)CCC(NC[C@H]1CC[C@H](CNS(=O)(=O)c3ccc(Cl)cc3Cl)CC1)C2Cc1ccccc1 (stereo partly drawn) [Compound 61]	94
COc1ccc2c(c1)CCC(NC[C@H]1CC[C@H](CNS(=O)(=O)c3ccc([N+](=O)[O-])cc3)CC1)C2Cc1ccccc1 (stereo partly drawn) [Compound 63]	93
COc1ccc2c(c1)CCC(NC[C@H]1CC[C@H](CNS(=O)(=O)c3ccccc3CN)CC1)C2Cc1ccccc1 (stereo partly drawn) [Compound 67]	91
COc1ccc2c(c1)CCC(NC[C@H]1CC[C@H](CNS(=O)(=O)c3ccccc3)CC1)C2Cc1c(F)cccc1F (relative stereo) [Compound 89]	98
O=S(=O)(NC[C@H]1CC[C@H](CNC2CCc3cc(F)ccc3C2Cc2ccccc2)CC1)c1ccccc1 (relative stereo) [Compound 103]	98
COc1ccc2c(c1)CCC(NC[C@H]1CC[C@H](CNS(=O)(=O)c3ccc(S(C)(=O)=O)cc3)CC1)C2Cc1ccccc1 (relative stereo) [Compound 55]	90
CCC[C@@H]1c2ccc(OC)cc2CC[C@@H]1NC[C@H]1CC[C@H](CNS(=O)(=O)c2ccccc2)CC1 (relative stereo) [Compound 42, rac-[1α,2α(trans)]-N-[[[[[1,2,3,4-tetrahydro-6-methoxy-1-(n-propyl)-2-naphthalenyl]amino]methyl]-4-cyclohexyl]methyl] benzenesulfonamide]	101
COc1ccc2c(c1)CCC(NC[C@H]1CC[C@H](CNS(=O)(=O)c3ccccc3)CC1)C2Cc1ccccc1OC (relative stereo) [Compound 85]	74
COc1ccc2c(c1)CCC(NC[C@H]1CC[C@H](CNS(=O)(=O)c3ccc(Br)cc3)CC1)C2Cc1ccccc1 (stereo partly drawn) [Compound 70]	95
O=S(=O)(NC1CCC(CNC2CCc3ccccc3C2Cc2cccnc2)CC1)c1ccccc1 (stereo not drawn) [Compound 112]	95
COc1ccc2c(c1)CCC(NC[C@H]1CC[C@H](CNS(=O)(=O)c3ccccc3F)CC1)C2Cc1ccccc1 (relative stereo) [Compound 57]	98
COc1ccc2c(c1)CCC(NC[C@H]1CC[C@H](CNS(=O)(=O)c3ccccc3)CC1)C2Cc1ccc(C(F)(F)F)cc1 (stereo partly drawn) [Compound 100]	93
COc1ccc2c(c1)CCC(NC[C@H]1CC[C@H](CNS(=O)(=O)c3ccccc3[N+](=O)[O-])CC1)C2Cc1ccc([N+](=O)[O-])cc1 (relative stereo) [Compound 88]	85

Structure (SMILES)	inhibition at 3 µM [%]
O=S(=O)(NC[C@H]1CC[C@H](CNC2CCc3cc(O)ccc3C2Cc2ccccc2)CC1)c1ccccc1 (stereo partly drawn) [Compound 71]	102
O=S(=O)(NCCCCNC1CCc2ccccc2C1Cc1ccccc1)c1ccc2ccccc2c1 (stereo not drawn) [Compound 45]	58
COc1ccc2c(c1)CCC(NC[C@H]1CC[C@H](CNS(=O)(=O)c3ccccc3Cl)CC1)C2Cc1ccccc1 (relative stereo) [Compound 66]	99
COc1ccc2c(c1)CC[C@H](NC[C@H]1CC[C@H](CNS(=O)(=O)c3ccc4ccccc4c3)CC1)[C@@H]2Cc1ccccc1 (relative stereo) [Compound 10, rac-[1α,2α(trans)]-N-[[[[[1,2,3,4-tetrahydro-6-methoxy-1-(phenylmethyl)-2-naphthalenyl]amino]methyl]-4-cyclohexyl]methyl]2-naphthalenesulfonamide]	96
COc1ccc2c(c1)CCC(NC[C@H]1CC[C@H](CNS(=O)(=O)c3ccccc3)CC1)C2Cc1ccc([N+](=O)[O-])cc1 (stereo partly drawn) [Compound 87]	84
COc1ccc2c(c1)C(Cc1ccccc1)C(NC[C@H]1CC[C@H](CNS(=O)(=O)c3ccc4ccccc4c3)CC1)CC2 (relative stereo) [Compound 80]	75
COc1cccc(CC2c3ccc(OC)cc3CCC2NC[C@H]2CC[C@H](CNS(=O)(=O)c3ccc4ccccc4c3)CC2)c1 (stereo partly drawn) [Compound 84]	82
COc1ccc2c(c1)CC[C@H](NC[C@H]1CC[C@H](CNS(=O)(=O)c3ccccc3)CC1)[C@@H]2CCCO (relative stereo) [Compound 40, rac-[1α,2α(trans)]-N-[[[[[1,2,3,4-tetrahydro-6-methoxy-1-(3-hydroxypropyl)-2-naphthalenyl]amino]methyl]-4-cyclohexyl]methyl] benzenesulfonamide]	91
COc1ccc2c(c1)CCC(NC[C@H]1CC[C@H](CNS(=O)(=O)c3ccccc3)CC1)C2Cc1ccc2ccccc2c1 (relative stereo) [Compound 81]	89
COc1cccc(CC2c3ccc(OC)cc3CCC2NC[C@H]2CC[C@H](CNS(=O)(=O)c3ccccc3)CC2)c1 (relative stereo) [Compound 83]	92
COc1ccc2c(c1)CC[C@H](NC[C@H]1CC[C@H](CNS(=O)(=O)c3cccc4ccccc34)CC1)[C@@H]2Cc1ccccc1 (relative stereo) [Compound 51]	95
COc1ccc2c(c1)CC[C@H](NC[C@H]1CC[C@H](CNS(=O)(=O)c3ccc4ccccc4c3)CC1)[C@@H]2Cc1cccnc1 (relative stereo) [Compound 18, rac-[1α,2α(trans)]-N-[[[[[1,2,3,4-tetrahydro-6-methoxy-1-(3-pyridinylmethyl)-2-naphthalenyl]amino]methyl]-4-cyclohexyl]methyl]2-naphthalenesulfonamide]	96
O=S(=O)(NC[C@H]1CC[C@H](CNC2CCc3cc(F)ccc3C2Cc2ccccc2)CC1)c1c(Cl)cccc1Cl (stereo partly drawn) [Compound 77]	102
COc1ccc2c(c1)CCC(NC[C@H]1CC[C@H](CNS(=O)(=O)c3cccc(Br)c3)CC1)C2Cc1ccccc1 (stereo partly drawn) [Compound 69]	93
O=S(=O)(NC[C@H]1CC[C@H](CNC2CCc3ccc(Cl)cc3C2Cc2ccccc2)CC1)c1ccccc1 (stereo partly drawn) [Compound 104]	97
COc1ccc2c(c1)CCC(NC[C@H]1CC[C@H](CNS(=O)(=O)c3ccccc3)CC1)C2Cc1ccccc1C(F)(F)F (stereo partly drawn) [Compound 98]	30
COc1ccc2c(c1)CCC(NC[C@H]1CC[C@H](CNS(=O)(=O)c3ccccc3)CC1)C2Cc1ccc(Cl)cc1 (relative stereo) [Compound 97]	90
O=S(=O)(NC[C@H]1CC[C@H](CNC2CCc3cc(O)c(O)cc3C2Cc2ccccc2)CC1)c1ccccc1 (relative stereo) [Compound 109]	101
